# From patent USRE39616E1, “Aminoindan derivatives” (priority 1996, dated 2007)
# Structures can show the parent of a compound that is named as a salt. Where two headings read alike, the source gives them in different places.
# How the values were obtained:
# [1] = tested on: Middle Cerebral Artery Occlusion (MCA-O) in Male Wistar Rats
# Experimental: Male Wistar rats (Olac England-Jerusalem) 300-400 g each were anesthetized with a solution of Equitesine administered i.p. at a dose of 3 ml/kg. Equitesine consists of 13.5 ml sodium pentothal solution (60 mg/ml), 3.5 g chloral hydrate, 1.75 g MgSO4, 33 ml propylene glycol, 8.3 ml absolute alcohol, made up to 83 ml with distilled water.
# The dura matter was opened carefully using a 27 gauge needle The MCA was permanently occluded by microbipolar coagulation at low power setting, beginning 2-3 mm medial to the olfactory tract between its cortical branch to the rhinal cortex and the laterate striate arteries. After coagulation, the MCA was severed with microscissors and divided to ensure complete occlusion. Following this, the temporalis muscle was sutured and laid over the craniectomy site. The skin was closed with a running 3-0 silk suture. A sham craniectomy operation was performed on a parallel group of rats, but without cauterization of the MCA.
# At 24 and 48 hours post surgery a neurological score was taken in order to assess the severity of the injury in the drug-treated rats with respect to their untreated controls.
# Drugs were administered as an s.c. injection, according to the following schedule:
# The scale runs from 0 (fully normal rats) to 13 (fully incapacitated rats). Most parameters are rated as either 0 (normal), or 1 (incapacitated) others are graded. […]
# MAO-B = target: T1, MAO-B (Rattus norvegicus, UniProt P19643); assay: Inhibition of MAO activity following sub-acute administration to rats; assay type: in vivo; set-up: from tissue; host or cells: rat brain, liver and intestine; conditions: sc, read-out: % MAO-B inhibition, Intestine, dose head prints 25 mg/kg (6 mg/kg sc) daily for 14 days
# T1 sequence (P19643 1-520): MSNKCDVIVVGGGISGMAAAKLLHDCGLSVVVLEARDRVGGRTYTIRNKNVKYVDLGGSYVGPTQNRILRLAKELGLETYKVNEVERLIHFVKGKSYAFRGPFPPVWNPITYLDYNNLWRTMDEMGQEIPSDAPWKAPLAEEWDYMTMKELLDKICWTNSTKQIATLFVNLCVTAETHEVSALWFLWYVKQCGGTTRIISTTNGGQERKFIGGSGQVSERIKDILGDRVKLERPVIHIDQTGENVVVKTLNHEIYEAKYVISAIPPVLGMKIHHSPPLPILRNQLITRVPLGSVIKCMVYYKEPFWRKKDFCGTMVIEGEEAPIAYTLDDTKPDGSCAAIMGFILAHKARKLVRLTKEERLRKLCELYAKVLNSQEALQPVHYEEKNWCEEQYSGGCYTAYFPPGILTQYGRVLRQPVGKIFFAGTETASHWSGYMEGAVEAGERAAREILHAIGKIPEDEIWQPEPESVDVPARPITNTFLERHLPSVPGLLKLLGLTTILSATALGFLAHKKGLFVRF
# Experimental: Substrate concentrations used were 50 μM (PEA) and 1 mM (5-HT).
# Male Sabra mice, weighing 45-50 g were injected with test compound solutions (prepared in 0.9% saline). Each dose was administered to two or three mice. The mice were sacrificed two hours after drug administration or at a time corresponding to the peak AChE inhibition time (see Table 11). The brain and liver were rapidly dissected and stored in appropriate vials on ice. The tissues were weighed, diluted to ½ in sucrose 0.3M and stored at −20° C. before performance of the MAO assay described above. The results given in Table 11 relate to measurements made on brain tissue only.
# Experiments were done in Sprague Dawley male rats. […] At the end of this period animals were sacrificed and MAO levels determined in the brain, liver and intestines.
smiles,measurement,setting,value
"C#CCNC1CCc2ccc(OC(=O)N(C)C)cc21 (stereo not drawn) [Compound 24, 6-(N,N-Dimethylcarbamyloxy)-N-propargyl aminoindan mesylate]",ΔNSS (difference measured at 24 hours and 48 hours),[1]; s.c. […] 15 minutes prior to MCA-O and 6.5 mg/kg 2 hours post MCA-O,1.625
same,inhibition at 6 mg/kg,MAO-B,0%
"C#CCNC1CCc2ccc(OC(=O)N(C)CC)cc21 (stereo not drawn) [Compound 25, 6-(N-Me, N-Etcarbamyloxy) N-propargyl aminoindan, HCl]",ΔNSS (difference measured at 24 hours and 48 hours),[1]; s.c. 43 mg/kg 90 minutes prior to MCA-O and 30 mg/kg 3 hours post MCA-O,1.78
